Laboratory results reported in patent publication US20250304623A1, “PEPTIDES FOR INTRACELLULAR DELIVERY” (UNIVERSIDADE DE SANTIAGO DE COMPOSTELA, priority 2022, published 2025).
*: point of attachment. NHNH2 = NN*

Legend:
Format in all cases: cell-based
[1] = tested on: HepG2 cells expressing EGFP; assay: Cas9-RNP delivery against EGFP (gene editing, plate reader), HepG2
Description: (§1) To generate an EGFP expressing HeLa cell line, HeLa cells were transfected with EGFP pDNA (pEGFP-C1, Clontech) and stable transfectants were selected with 400 μg/mL of G-418 (Millipore). Green clones were selected by epifluorescence microscopy and tested for EGFP expression stability through several passages. […] All other EGFP-expressing cell lines were obtained in a similar way from parent non-EGFP-expressing cell lines.
(§2) Cells expressing EGFP were seeded in a 96 well plate the day before the experiment at a concentration of 50,000 cell/mL (100 μL/w) in DMEM+10% FBS+1% Gln-Abt. For robotic library screening, the delivery of Cas9-RNP against EGFP (RNP designed to knock-out the gene encoding for the enhanced green fluorescent protein (EGFP)) was performed. For RNP assembly, 9.2 μL of crRNA and 9.2 μL of tracrRNA were mixed in 211.6 μL of Nuclease-Free Duplex Buffer (IDT), incubated for 5 min at 95° C. and slowly cooled at rt (see I. Lostalé-Seijo, et al. Peptide/Cas9 nanostructures for ribonucleoprotein cell membrane transport and gene edition, Chem. Sci., 2017). Cas9 protein was dissolved in DMEM at a final concentration of 4 μM and equal volumes of the RNA complex and Cas9 were mixed and incubated for 5 min at rt. 75 μL of the corresponding amphiphile concentrations were added to 5 μL of RNP at 2 μM. The mixture was shaken for 30 min at room temperature before the addition to the cells. The cell medium was aspirated, and cells were washed twice with PBS. Cells were covered with 30 μL of DMEM and 20 μL of the RNP/amphiphile complexes were added to the cells (final peptide concentrations=2.5, 5 and 10 μM; final Cas9-RNP concentration=50 nM) and incubated for 4 h. After the incubation, the medium was replaced by 100 μL of fresh DMEM supplemented with 10% FBS. The total EGFP fluorescence was quantified after 72 h in a plate reader (FIG. 2, Table 1 (right) and Table 6). All experiments were done in triplicate. […]
(§3) Tables 26-31 show the mean (triplicates) percentage of gene editing, accounted by GFP fluorescence intensity decrease (% of reduction), measured after the transfection of Cas9-RNP by different amphiphiles at different concentrations in a variety of cell lines. Background values, accounted by untreated control cells, were subtracted for processing.

[2] = tested on: HCT116 cells expressing EGFP; assay: Cas9-RNP delivery against EGFP (gene editing, plate reader), HCT116
Description: as §1, §2, §3

[3] = tested on: A549 cells expressing EGFP; assay: EGFP-targeting siRNA delivery (GFP silencing vs siMOCK), A549; details: for percentage of GFP-silencing relative to siMOCK: A549 cells; for siRNA % fluorescence reduction vs siMOCK: A549, amphiphile 5 μM, hydrophobic tail
Description: as §1
Cells expressing EGFP were seeded in a 96 well plate the day before the experiment at a concentration of 50,000 cell/mL (100 μL/w) in DMEM+10% FBS+1% Gln-Abt. For robotic library screening, the delivery of an EGFP-targeting siRNA (EGFP: enhanced green fluorescent protein, Ambion® Silencer® GFP Positive Control siRNA (siGFP) (AM4626)) in six different cell lines expressing EGFP was performed. […] The mixture was shaken for 30 min at room temperature (rt) before the addition to the cells. The cell medium was aspirated, and cells were washed twice with PBS. Finally, 50 μL of the solution of siRNA/amphiphile complexes were added to the cells and incubated for 4 h. After transfection, the medium was replaced by 100 μL of fresh DMEM supplemented with 10% FBS. The fluorescence knockdown was quantified after 72 h in a plate reader, by comparison with cells transfected with a non-targeting siRNA control (siMOCK, Silencer™ Negative Control No. 1 siRNA (siMOCK) (AM4611)). EGFP knockdown was compared with Lipofectamine® RNAiMAX silencing efficiency (30-60% depending on cell line, defined with a numeric value in the below tables). All experiments were done in triplicate.
Tables 1-7: RLuc (pDNA) or EGFP (mRNA) expression levels were normalized to Lipofectamine reagents (value=1) and expressed as fold-times signal increase. In the case of siRNA, the siRNA treated cells fluorescence was compared with siMOCK control fluorescence, while Cas9-RNP mediated knockout was measured against the fluorescence of untreated cells. In both siRNA and Cas9-RNP, values are expressed as % fluorescence reduction. Amphiphile concentration was 5 μM in all cases. All experiments were performed in triplicate.
as §3, with “20-25” for “26-31”, “GFP-silencing,” for “gene editing,”, “by” for “by GFP”, “relative to a non-targeting siRNA (siMOCK) control,” for “(% of reduction),”, “siRNA” for “Cas9-RNP”

Substance	percentage of gene editing, GFP fluorescence intensity decrease (% of reduction) ([1]; Myristoleyl, 10 μM)	percentage of gene editing, GFP fluorescence intensity decrease (% of reduction) ([1]; Palmitoleyl, 5 μM)	percentage of gene editing, GFP fluorescence intensity decrease (% of reduction) ([1]; Palmitoleyl, 10 μM)	percentage of gene editing, GFP fluorescence intensity decrease (% of reduction) ([1]; Palmitoleyl, 15 μM)	percentage of gene editing, GFP fluorescence intensity decrease (% of reduction) ([1]; Petroselinyl, 5 μM)	percentage of gene editing, GFP fluorescence intensity decrease (% of reduction) ([1]; Petroselinyl, 10 μM)	percentage of gene editing, GFP fluorescence intensity decrease (% of reduction) ([2]; Dodecanal, 5 μM)	percentage of gene editing, GFP fluorescence intensity decrease (% of reduction) ([2]; Dodecanal, 15 μM)	percentage of gene editing, GFP fluorescence intensity decrease (% of reduction) ([2]; Myristoleyl, 15 μM)	percentage of gene editing, GFP fluorescence intensity decrease (% of reduction) ([2]; Petroselinyl, 5 μM)	percentage of GFP-silencing relative to siMOCK ([3]; Dodecanal, 5 μM)	percentage of GFP-silencing relative to siMOCK ([3]; Dodecanal, 10 μM)	percentage of GFP-silencing relative to siMOCK ([3]; Myristoleyl, 5 μM)	percentage of GFP-silencing relative to siMOCK ([3]; Myristoleyl, 10 μM)	percentage of GFP-silencing relative to siMOCK ([3]; Myristoleyl, 15 μM)	percentage of gene editing, GFP fluorescence intensity decrease (% of reduction) ([1]; Dodecanal, 10 μM)	percentage of gene editing, GFP fluorescence intensity decrease (% of reduction) ([1]; Dodecanal, 15 μM)	percentage of gene editing, GFP fluorescence intensity decrease (% of reduction) ([1]; Oleyl, 10 μM)	percentage of GFP-silencing relative to siMOCK ([3]; Oleyl, 10 μM)	percentage of GFP-silencing relative to siMOCK ([3]; Oleyl, 15 μM)	further results
Ac-RRLK*RLLRRLK*RLK*RRL-NH2 (Ac-RRLK(NHNH2)RLLRRLK(NHNH2)RLK(NHNH2)RRL-NH2; not fully specified; printed as Ac-RRLK*RLLRRLK*RLK*RRL-NH2; also: K*4,K*11,K*14: native or modified lysine (ε-amide to a linker)) [Peptide 17.3]	38%	−2%	31%	31%	−2%	39%	−2%	22%	26%	−4%	25%	4%	24%	8%	6%						percentage of gene editing, GFP fluorescence intensity decrease (% of reduction) ([1]; Myristoleyl, 5 μM): 6%; percentage of gene editing, GFP fluorescence intensity decrease (% of reduction) ([1]; Petroselinyl, 15 μM): 35%
Ac-RK*LRRK*LRK*-NH2 (Ac-RK(NHNH2)LRRK(NHNH2)LRK(NHNH2)-NH2; not fully specified; printed as Ac-RK*LRRK*LRK*-NH2; also: K*2,K*6,K*9: native or modified lysine (ε-amide to a linker)) [Peptide 9.3]	−5%				−24%	−19%	7%	−8%	−11%		35%	35%	34%	58%	23%	−29%	−26%	3%	32%	28%	percentage of gene editing, GFP fluorescence intensity decrease (% of reduction) ([1]; Oleyl, 5 μM): −10%; percentage of gene editing, GFP fluorescence intensity decrease (% of reduction) ([2]; Dodecanal, 10 μM): 1%; percentage of gene editing, GFP fluorescence intensity decrease (% of reduction) ([2]; Oleyl, 5 μM): 24%; percentage of gene editing, GFP fluorescence intensity decrease (% of reduction) ([2]; Oleyl, 10 μM): 14%; percentage of gene editing, GFP fluorescence intensity decrease (% of reduction) ([2]; Palmitoleyl, 5 μM): −21%; percentage of gene editing, GFP fluorescence intensity decrease (% of reduction) ([2]; Palmitoleyl, 15 μM): −38%; percentage of gene editing, GFP fluorescence intensity decrease (% of reduction) ([2]; Petroselinyl, 15 μM): 4%; siRNA % fluorescence reduction vs siMOCK ([3]; palmitoleyl hydrophobic tail): 75%; percentage of GFP-silencing relative to siMOCK ([3]; Dodecanal, 15 μM): 55%; percentage of GFP-silencing relative to siMOCK ([3]; Palmitoleyl, 5 μM): 42%; percentage of GFP-silencing relative to siMOCK ([3]; Palmitoleyl, 10 μM): 75%; percentage of GFP-silencing relative to siMOCK ([3]; Palmitoleyl, 15 μM): 64%; percentage of GFP-silencing relative to siMOCK ([3]; Petroselinyl, 5 μM): 6%; percentage of GFP-silencing relative to siMOCK ([3]; Petroselinyl, 10 μM): 58%; percentage of GFP-silencing relative to siMOCK ([3]; Petroselinyl, 15 μM): 75%
Ac-RRLK*RLLRRLK*RL-NH2 (Ac-RRLK(NHNH2)RLLRRLK(NHNH2)RL-NH2; not fully specified; printed as Ac-RRLK*RLLRRLK*RL-NH2; also: K*4,K*11: native or modified lysine (ε-amide to a linker)) [Peptide 13.2]																−41%	9%	−21%	−2%	−21%	percentage of gene editing, GFP fluorescence intensity decrease (% of reduction) ([1]; Dodecanal, 5 μM): −36%; percentage of gene editing, GFP fluorescence intensity decrease (% of reduction) ([1]; Oleyl, 15 μM): −33%; percentage of gene editing, GFP fluorescence intensity decrease (% of reduction) ([2]; Oleyl, 5 μM): −6%; percentage of GFP-silencing relative to siMOCK ([3]; Oleyl, 5 μM): 19%
Ac-RHLK*RHK*RRLK*RH-NH2 (Ac-RHLKRHKRRLKRH-NH2; not fully specified (residues 4, 7, 11); printed as Ac-RHLK*RHK*RRLK*RH-NH2; also: linker on K* not given here) [13(3His)]	−1%	−28%	−24%	−15%	−16%		−33%		0%	26%		10%		28%	25%	−34%			26%	29%	percentage of gene editing, GFP fluorescence intensity decrease (% of reduction) ([1]; Dodecanal, 5 μM): −33%; percentage of gene editing, GFP fluorescence intensity decrease (% of reduction) ([2]; Palmitoleyl, 5 μM): −9%; percentage of gene editing, GFP fluorescence intensity decrease (% of reduction) ([2]; Palmitoleyl, 15 μM): 14%; siRNA % fluorescence reduction vs siMOCK [3]: 71%; percentage of GFP-silencing relative to siMOCK ([3]; Dodecanal, 15 μM): 37%; percentage of GFP-silencing relative to siMOCK ([3]; Oleyl, 5 μM): 22%; percentage of GFP-silencing relative to siMOCK ([3]; Palmitoleyl, 10 μM): 36%; percentage of GFP-silencing relative to siMOCK ([3]; Palmitoleyl, 15 μM): 28%; percentage of GFP-silencing relative to siMOCK ([3]; Petroselinyl, 10 μM): 42%; percentage of GFP-silencing relative to siMOCK ([3]; Petroselinyl, 15 μM): 71%
